From article PMC4037836 (British Journal of Cancer, 2014)
Each block holds one compound with its values, some of them ahead of it.

What was measured:
[1] = Plasma pharmacokinetics of paclitaxel, pazopanib and lapatinib in cycle 1; assay type: in vivo, human; conditions: for half-life / AUC(0-inf) / Cmax / AUC(0-t): human, plasma; for AUC(0-t): Lapatinib AUC(0–24)
CYP2C8 = assay type: in vivo, human; conditions: increase in paclitaxel AUC and Cmax less than two-fold in the presence of pazopanib and lapatinib
[2] = pazopanib and lapatinib combination, daily; ref de Jonge et al, 2013; cited from earlier work
[3] = pazopanib in combination with paclitaxel; ref Tan et al, 2010; cited from earlier work
CYP3A4 = assay type: in vivo, human; conditions: increase in paclitaxel AUC and Cmax less than two-fold in the presence of pazopanib and lapatinib
[4] = day 15 of cycle 1, paclitaxel 50 mg m^−2, pazopanib 400 mg, lapatinib 1000 mg, n=6, geometric mean (95% confidence interval)
[5] = day 15 of cycle 1, paclitaxel 50 mg m^−2, pazopanib 800 mg, lapatinib 1000 mg, n=3, median (range)
[6] = day 15 of cycle 1, paclitaxel 80 mg m^−2, pazopanib 400 mg, lapatinib 1000 mg, n=9, geometric mean (95% confidence interval)
[7] = day 15 of cycle 1, paclitaxel 80 mg m^−2, pazopanib 800 mg, lapatinib 1000 mg, n=1, individual value
[8] = patients receiving pazopanib 400 mg, lapatinib 1000 mg

- Pazopanib AUC(0–24) [1, 4]: 633 (279, 1436) μg*hr ml^−1
- Pazopanib Cmax [1, 4]: 31.7 (14.6, 68.8) μg ml^−1
- Pazopanib AUC(0–24) [1, 5]: 960 (736, 1620) μg*hr ml^−1
- Pazopanib Cmax [1, 5]: 48.9 (40.7, 80.9) μg ml^−1
- Pazopanib AUC(0–24) [1, 6]: 646 (432, 967) μg*hr ml^−1
- Pazopanib Cmax [1, 6]: 32 (21.9, 46.9) μg ml^−1
- Pazopanib AUC(0–24) [1, 7]: 1027 µg·h/mL
- Pazopanib Cmax [1, 7]: 57.4 µg/mL
- Change in mean AUC0–24 of pazopanib with a two-fold increase in pazopanib dose ([1]; pazopanib 400–800 mg per day): less than two-fold increase
- Change in mean Cmax of pazopanib with a two-fold increase in pazopanib dose ([1]; pazopanib 400–800 mg per day): less than two-fold increase
- Inhibition of CYP2C8 (classification) (CYP2C8): weak inhibitors
Compound: 5-((4-((2,3-dimethyl-2H-indazol-6-yl)methylamino]-2-pyrimidinyl)amino)-2-methyl-benzenesulfonamide [pazopanib]
- Recommended phase II dosing [2]: 800 mg

- Paclitaxel CL ([1]; day 15, 50 mg m^−2 paclitaxel+400 mg pazopanib+1000 mg lapatinib, n=4, geometric mean (95% confidence interval)): 16.3 (14.8, 17.9) l h^−1 m^−2
- Paclitaxel CL ([1]; day 15, 50 mg m^−2 paclitaxel+800 mg pazopanib+1000 mg lapatinib, n=3, median (range)): 16.3 (14.9, 20.3) l h^−1 m^−2
- Paclitaxel CL ([1]; day 15, 80 mg m^−2 paclitaxel+400 mg pazopanib+1000 mg lapatinib (MTR), n=9, geometric mean (95% confidence interval)): 15.3 (13.2, 17.8) l h^−1 m^−2
- Paclitaxel CL ([1]; day 15, 80 mg m^−2 paclitaxel+800 mg pazopanib+1000 mg lapatinib, n=1, individual value): 18.3 l h^−1 m^−2
- half-life ([1]; intravenous): 14.8 h
- AUC(0-inf) ([1]; intravenous, 50 mg m^−2): 2.15 µg·h/mL
- Cmax ([1]; intravenous, 50 mg m^−2): 1440 ng/mL
- half-life ([1]; intravenous, 50 mg m^−2): 11.7 h
- Cmax ([1]; intravenous, 50 mg m^−2, Paclitaxel Cmax, day 1 (pazopanib and lapatinib withheld), 50 mg m^−2 paclitaxel+800 mg pazopanib+1000 mg lapatinib, n=3, median (range)): 1270 ng/mL
- AUC(0-inf) ([1]; intravenous, 80 mg m^−2): 3.82 µg·h/mL
- Cmax ([1]; intravenous, 80 mg m^−2): 2290 ng/mL
- Cmax ([1]; intravenous, 80 mg m^−2, Paclitaxel Cmax, day 1 (pazopanib and lapatinib withheld), 80 mg m^−2 paclitaxel+800 mg pazopanib+1000 mg lapatinib, n=3, median (range)): 3320 ng/mL
- AUC(0-inf) ([1]; intravenous, Paclitaxel AUC(0-∞), day 15, 50 mg m^−2 paclitaxel+800 mg pazopanib+1000 mg lapatinib, n=3, median (range)): 3.06 µg·h/mL
- AUC(0-inf) ([1]; intravenous, Paclitaxel AUC(0-∞), day 15, 80 mg m^−2 paclitaxel+400 mg pazopanib+1000 mg lapatinib (MTR), n=9, geometric mean (95% confidence interval)): 5.23 µg·h/mL
- AUC(0-inf) ([1]; intravenous, Paclitaxel AUC(0–∞), day 15, 50 mg m^−2 paclitaxel+400 mg pazopanib+1000 mg lapatinib, n=4, geometric mean (95% confidence interval)): 3.07 µg·h/mL
- AUC(0-inf) ([1]; intravenous, Paclitaxel AUC(0–∞), day 15, 80 mg m^−2 paclitaxel+800 mg pazopanib+1000 mg lapatinib, n=1, individual value): 4.37 µg·h/mL
- Cmax ([1]; intravenous, Paclitaxel Cmax, day 15, 50 mg m^−2 paclitaxel+400 mg pazopanib+1000 mg lapatinib, n=5, geometric mean (95% confidence interval)): 2330 ng/mL
- Cmax ([1]; intravenous, Paclitaxel Cmax, day 15, 50 mg m^−2 paclitaxel+800 mg pazopanib+1000 mg lapatinib, n=3, median (range)): 1720 ng/mL
- Cmax ([1]; intravenous, Paclitaxel Cmax, day 15, 80 mg m^−2 paclitaxel+800 mg pazopanib+1000 mg lapatinib, n=1, individual value): 2710 ng/mL
Compound: CC(=O)O[C@H]1C(=O)[C@@]2(C)[C@H]([C@H](OC(=O)c3ccccc3)[C@]3(O)C[C@H](OC(=O)[C@H](O)[C@@H](NC(=O)c4ccccc4)c4ccccc4)C(C)=C1C3(C)C)[C@]1(OC(C)=O)CO[C@@H]1C[C@@H]2O [paclitaxel]
- Increase in Cmax of paclitaxel relative to paclitaxel alone [3]: 36%
- Increase in geometric mean AUC of paclitaxel relative to paclitaxel alone [3]: 26%

- Lapatinib Cmax [1, 6]: 1.95 (1.13, 3.37) μg ml^−1
- AUC(0-t) ([1]; oral, day 15 of cycle 1, paclitaxel 50 mg m^−2, pazopanib 400 mg, lapatinib 1000 mg, n=6, geometric mean (95% confidence interval)): 20 µg·h/mL
- AUC(0-t) ([1]; oral, day 15 of cycle 1, paclitaxel 50 mg m^−2, pazopanib 800 mg, lapatinib 1000 mg, n=3, median (range)): 51.4 µg·h/mL
- AUC(0-t) ([1]; oral, day 15 of cycle 1, paclitaxel 80 mg m^−2, pazopanib 400 mg, lapatinib 1000 mg, n=9, geometric mean (95% confidence interval)): 27.1 µg·h/mL
- AUC(0-t) ([1]; oral, day 15 of cycle 1, paclitaxel 80 mg m^−2, pazopanib 800 mg, lapatinib 1000 mg, n=1, individual value): 11.6 µg·h/mL
- Cmax ([1]; oral, Lapatinib Cmax, day 15 of cycle 1, paclitaxel 50 mg m^−2, pazopanib 400 mg, lapatinib 1000 mg, n=6, geometric mean (95% confidence interval)): 1270 ng/mL
- Increase in AUC0–24 of lapatinib on increasing paclitaxel from 50 to 80 mg m^−2 [1, 8]: 1.4 fold
- Increase in Cmax of lapatinib on increasing paclitaxel from 50 to 80 mg m^−2 [1, 8]: 1.5 fold
- Inhibition of CYP3A4 (classification) (CYP3A4): weak inhibitors
- Inhibition of CYP2C8 (classification) (CYP2C8): weak inhibitors
Compound: CS(=O)(=O)CCNCc1ccc(-c2ccc3ncnc(Nc4ccc(OCc5cccc(F)c5)c(Cl)c4)c3c2)o1 [lapatinib]
- Recommended phase II dosing [2]: 1500 mg
